According to US8663701B2, “Compositions containing ultra-micronized palmitoyl-ethanolamide” (priority 2009, dated 2014):

Legend:
[1] = test system: cutaneous reaction induced by Ascaris suum; test: Cutaneous reaction induced by Asc S1 antigen in dogs sensitized to Ascaris suum; format: in vivo, Beagle dog; conditions: for Inhibition on the cutaneous reaction induced by Ascaris suum: 10 mg/Kg oral; for Inhibition of the cutaneous reaction: between 1 and 4 hours after treatment
Procedure: Beagle dog spontaneously sensitized to Ascaris suum were used.
A 2% solution of Evans Blue in saline was administered endovenously (0.4 mL/Kg) 30 minutes before the intradermal injection of Asc S1 antigen, so as to be able to visualize the dermal reaction area.
The dermal reaction area was measured 10 minutes after the injection of Asc S1 antigen.

[2] = Particle size profile, laser particle size analyzer (LALLS); format: physicochemical; conditions: ultra-micronization
From the text: In order to measure the particle size, a laser particle size analyzer (Malvern Mastersizer) with LALLS (Low Angle Laser Light Scattering) technique using the Fraunhofer theory of computation is employed.

[3] = test system: TNF-alpha, tissue mast cells; test: LPS-induced acute intestinal inflammation; format: in vivo, mouse; conditions: 18 hours after LPS
Procedure: (§1) An acute inflammation was induced in the animal by means of intra-peritoneal injection of LPS (lipopolysaccharide): the animals were sacrificed after 18 hours from the LPS administration. Instead, a chronic inflammation at the colon level was induced by administering the animal with DNBS (2,4-Dinitrobenzene sulfonic acid): in this case, the animals were sacrificed after 96 hours from the DNBS administration.
(§2) The level of TNF-alpha and the percent variation in the number of mast cells were assessed on intestinal tissue.

[4] = test system: protein NGF, protein TNF-alpha; test: Carrageenan-induced granuloma; format: in vivo, rat; conditions: for Expression of protein NGF in the dorsal root ganglia / Expression of protein NGF in the granulomatous tissue / Expression of protein TNF-alpha in the dorsal root ganglia: 96 hours, 10 mg/Kg oral every 12 hours for 3 days
Procedure: The pharmacological model of granuloma induced, in the rat, by the introduction in the subcutaneous tissue of carrageenan-soaked sponge has been used. The model is described in De Filippis et al., J Cell Mol Med. 2009; 13(6):1086-1095.
The administrations were carried out at time 0 (immediately before the introduction of the sponges), and every 12 hours for 3 consecutive days. The unit doses administered were 10 mg/Kg.
The biochemical parameters relative to pro-algogenic mediators were detected, after sacrifice of the animal occurred after 96 hours from the introduction of the sponges, both in the granulomatous tissue (expression of the protein NGF), and at the level of the dorsal root ganglia (RDG) (expression of the protein TNF-alpha and the protein NGF).

[5] = Concentration of PEA in serum after single oral administration; format: in vivo, Beagle dogs; conditions: 15 mg/Kg oral, fasting
[6] = Modulated Differential Scanning Calorimetry (MDSC); format: physicochemical; conditions: room temperature; from MDSC spectrum
From the text: The MDSC technique is a known one, the principles and applications of which are described, for example, in S. R. Rabel et al., Journal of Pharmaceutical and Biomedical Analysis, 21 (1999) 339-345. The tests described in the present patent application have been carried out with an equipment TA DSC Q200.
Such differential calorimetry measurement performed with the MDSC technique have shown an outstanding difference between the initial product and the ultra-micronized product, which difference consists in the appearance, in the product subjected to ultra-micronization, of a positive peak of exothermal transition at a temperature between 101° C. and 103° C., which is distinctive of structures with a high energy content; in the original product, such peak results, on the contrary, to be negative (see FIGS. 3 and 4). The positive exothermal transition peak has to be interpreted as the signal of the heat developed by the transformation of the higher energy content form (formed during the ultra-micronization process) into the native crystalline form with lower energy content.
The net energy transition which characterizes the positive peak at 101-103° C. of FIG. 4 is symptomatic of such stability. Differently, progressive transitions at lower temperatures should have to be noticed.

IL-1 beta, NO2 = test: Beta-amyloid-induced neuroinflammation; format: in vivo, C57BL/6 mice; conditions: for Effect on the levels of the biological parameters considered: IL-1 beta and NO2 in hippocampus; for Hippocampal levels of NO2 / Hippocampal tissue levels of IL-1 beta (with immunofluorescence method) (count of cells immunopositive to THE-1 beta): per os daily for 8 days after beta-amyloid inoculation
Procedure: C57BL/6 mice with age ranging between 3 and 5 months have been used, divided in 3 different groups (20 animals per group). […] The administrations were carried out daily for 8 days successive to the inoculation of the beta-amyloid. The third group was administered with the vehicle alone. After sacrifice of the animal, IL-1 beta and NO2 dose level was measured in the hippocampal homogenate via an immunofluorescence method.
The experimental method described by Esposito et al., Br J Pharmacol. 2007; 151:1272-1279 has been used.

[7] = test system: TNF-alpha, NGF, NF-kB, IL-1 alpha; test: Sciatic nerve ligation (CCI), spinal parameters at day 10; format: in vivo, mouse; conditions: for IL-1alpha / NGF / TNF-alpha: spinal area, day 10 after ligation (CCI), per os once per day
From the text: After sciatic nerve ligation—CCI (carried out as described by Costa et al., Pain 2008; 139:541-550), a series of altered spinal parameters have been assessed in the mouse, following peripheral damage, and related to the activation of microglial cells induced by the peripheral chronic distress. In particular, TNF-alpha, NGF, NF-kB according to the method described by Costa et al. (see supra), and IL-1 alpha according to the method described by Fiorentino et al., 2008; 58(10):3100-3109 have been measured.
A 0.5% solution in carboxymethyl cellulose has been used as a vehicle.
The measurements of the parameters indicated, above have been carried out at day 10 from the sciatic nerve ligation, after sacrifice of the test animal and sampling of the spinal area.

[8] = test system: neuropathic pain at the lower limbs; test: Neuropathic pain in Multiple Sclerosis patients, VAS scale; format: in vivo; conditions: for VAS after the treatment of 60 days (average value): tablets
Procedure: The pain intensity was measured with a VAS (Visual Analogue Scale) scale both before and at the end of the treatment with palmitoylethanolamide.

[9] = test system: TNF-alpha, tissue mast cells; test: DNBS-induced chronic intestinal inflammation; format: in vivo, mouse; conditions: 96 hours after DNBS
Procedure: as §1, §2

[10] = test system: 2-arachidonoylglycerol (2-AG); test: Concentration of 2-AG in serum after single oral administration of PEA; format: in vivo, Beagle dogs; conditions: for Concentration in serum, 2AG: 15 mg/Kg oral, fasting; for Increase of 2-AG in blood compared to the basal levels: administration per os
From the text: Dose measurements in blood have been carried out of 2-arachidonoyl-glycerol (2-AG), an endocannabinoid of great importance in the modulation of the activation of cells capable of expressing the cannabinoid CB2 receptor; this is the case of many cells belonging to the immune system as the microglia.

[11] = Time 0 hours (before administration)
[12] = vehicle 100, listed as Ultra-micronized PEA
[13] = listed as ultra-micronized PEA, 10 mg/kg
[14] = Time 0 (immediately before administration)
[15] = vehicle 100, listed as Micronized PEA
[16] = listed as micronized PEA, 10 mg/kg

CCCCCCCCCCCCCCCC(=O)NCCO [Ultra-micronized palmitoylethanolamide, palmitoylethanolamide]
Inhibition on the cutaneous reaction induced by Ascaris suum [1, 11]: 0%
Inhibition on the cutaneous reaction induced by Ascaris suum ([1]; Time 1 hours, 10 mg/kg): 20.8 ± 5.4%
Inhibition on the cutaneous reaction induced by Ascaris suum ([1]; Time 2 hours, 10 mg/kg): 32.4 ± 4.7%
Inhibition on the cutaneous reaction induced by Ascaris suum ([1]; Time 4 hours, 10 mg/kg): 26.0 ± 4.9%
Inhibition on the cutaneous reaction induced by Ascaris suum ([1]; Time 8 hours, 10 mg/kg): 15.1 ± 9.6%
Inhibition on the cutaneous reaction induced by Ascaris suum ([1]; Time 24 hours, 10 mg/kg): 4.5 ± 6.7%
Inhibition of the cutaneous reaction ([1]; listed as ultra-micronized PEA): above 20%
Particle size <0.6 microns [2]: 2.0%
Particle size <1 microns [2]: 14.7%
Particle size <2 microns [2]: 59.6%
Particle size <6 microns [2]: 99.9%
Particle size <10 microns [2]: 100%
Particle size >14 microns [2]: Absent
Expression of protein TNF-alpha ([3]; listed as Ultra-micronized PEA): 75.6 ± 12.3 OD = mm^2
Number of tissue mast cells, percent of vehicle [3, 12]: 41%
Expression of protein NGF in the dorsal root ganglia [4]: 43.8 ± 3.1 OD = mm^2
Expression of protein NGF in the granulomatous tissue [4, 13]: 6.1 ± 1.6 OD = mm^2
Expression of protein TNF-alpha in the dorsal root ganglia [4, 13]: 96.6 ± 10.4 OD = mm^2
Decrease of NGF levels ([4]; compared to the micronized PEA): much more marked decrease
Concentration in serum, PEA [5, 14]: 12.4 nM
Concentration in serum, PEA ([5]; Time 1 h, 15 mg/kg): 22.4 nM
Concentration in serum, PEA ([5]; Time 2 h, 15 mg/kg): 16.2 nM
Concentration in serum, PEA ([5]; Time 3 h, 15 mg/kg): 14.1 nM
Stability of the high energy crystalline form [6]: substantially stable at room temperature
Effect on the levels of the biological parameters considered (IL-1 beta, NO2; listed as ultra-micronized PEA): high decrease
Hippocampal levels of NO2 (IL-1 beta, NO2; listed as ultra-micronized PEA): 3.1 ± 0.6 μM/μg of proteins from hippocampal homogeneate
Hippocampal tissue levels of IL-1 beta (with immunofluorescence method) (count of cells immunopositive to THE-1 beta) (IL-1 beta, NO2; listed as ultra-micronized PEA): 21.8 ± 5.4
Effect on all the biochemical parameters under investigation ([7]; CCI, day 10): substantial normalization
IL-1alpha ([7]; listed as ultra-micronized PEA): 2.50 ± 0.02 pg/mg prot
NGF ([7]; listed as ultra-micronized PEA): 10.2 ± 2.0 pg/mg prot
TNF-alpha ([7]; listed as ultra-micronized PEA): 44.1 ± 2.8 pg/mg prot
VAS after the treatment of 60 days (average value) ([8]; 600 mg per day for 60 days): 2.85
Effect on pain (VAS) ([8]; 600 mg per day for 60 days, Wilcoxon p=0.001): marked decrease of the pain
VAS before the treatment (average value) [8]: 6.52
Expression of protein TNF-alpha ([9]; listed as Ultra-micronized PEA): 62.9 ± 11.8 OD = mm^2
Tissue mast cell number, percent of vehicle [9, 12]: 26%
Concentration in serum, 2AG [10, 14]: 1.0 pmol/mL
Concentration in serum, 2AG ([10]; Time 1 h, 15 mg/kg): 3.6 pmol/mL
Concentration in serum, 2AG ([10]; Time 2 h, 15 mg/kg): 4.2 pmol/mL
Concentration in serum, 2AG ([10]; Time 3 h, 15 mg/kg): 4.7 pmol/mL
Increase of 2-AG in blood compared to the basal levels [10]: higher than 400%

CCCCCCCCCCCCCCCC(=O)NCCO [Micronized palmitoylethanolamide, palmitoylethanolamide, reference compound]
Inhibition on the cutaneous reaction induced by Ascaris suum [1, 11]: 0%
Inhibition on the cutaneous reaction induced by Ascaris suum ([1]; Time 1 hours, 10 mg/kg): 9.4 ± 2.6%
Inhibition on the cutaneous reaction induced by Ascaris suum ([1]; Time 2 hours, 10 mg/kg): 9.3 ± 4.7%
Inhibition on the cutaneous reaction induced by Ascaris suum ([1]; Time 4 hours, 10 mg/kg): −2.6 ± 4.2%
Inhibition on the cutaneous reaction induced by Ascaris suum ([1]; Time 8 hours, 10 mg/kg): −0.8 ± 2.0%
Inhibition on the cutaneous reaction induced by Ascaris suum ([1]; Time 24 hours, 10 mg/kg): −0.2 ± 2.0%
Inhibition of the cutaneous reaction ([1]; listed as micronized PEA): almost null
Expression of protein TNF-alpha ([3]; listed as Micronized PEA): 128.3 ± 10.8 OD = mm^2
Number of tissue mast cells, percent of vehicle [3, 15]: 86%
Expression of protein NGF in the dorsal root ganglia [4, 16]: 50.8 ± 3.0 OD = mm^2
Expression of protein NGF in the granulomatous tissue [4, 16]: 14.6 ± 2.1 OD = mm^2
Expression of protein TNF-alpha in the dorsal root ganglia [4, 16]: 151.1 ± 9.6 OD = mm^2
concentration at 0 h ([5]; Beagle, dog, serum, po, 15 mg/kg, Time 0 (immediately before administration)): 12.4 nM
concentration at 1 h ([5]; Beagle, dog, serum, po, 15 mg/kg, Time 1 h): 22.2 nM
concentration at 2 h ([5]; Beagle, dog, serum, po, 15 mg/kg, Time 2 h): 15.6 nM
concentration at 3 h ([5]; Beagle, dog, serum, po, 15 mg/kg, Time 3 h): 13.4 nM
Effect on the levels of the biological parameters considered (IL-1 beta, NO2; listed as micronized PEA): only a marginal activity
Hippocampal levels of NO2 (IL-1 beta, NO2; listed as micronized PEA): 8.2 ± 2.1 μM/μg of proteins from hippocampal homogeneate
Hippocampal tissue levels of IL-1 beta (with immunofluorescence method) (count of cells immunopositive to THE-1 beta) (IL-1 beta, NO2; listed as micronized PEA): 86.3 ± 7.9
IL-1alpha ([7]; listed as micronized PEA): 25.80 ± 2.0 pg/mg prot
NGF ([7]; listed as micronized PEA): 38.6 ± 3.0 pg/mg prot
TNF-alpha ([7]; listed as micronized PEA): 60.4 ± 3.0 pg/mg prot
VAS after the treatment of 60 days (average value) ([8]; 600 mg per day for 60 days): 4.22
VAS before the treatment (average value) [8]: 6.52
Expression of protein TNF-alpha ([9]; listed as Micronized PEA): 134.8 ± 8.4 OD = mm^2
Tissue mast cell number, percent of vehicle [9, 15]: 74%
Concentration in serum, 2AG [10, 14]: 1.0 pmol/mL
Concentration in serum, 2AG ([10]; Time 1 h, 15 mg/kg): 1.2 pmol/mL
Concentration in serum, 2AG ([10]; Time 2 h, 15 mg/kg): 1.6 pmol/mL
Concentration in serum, 2AG ([10]; Time 3 h, 15 mg/kg): 1.7 pmol/mL
Increase of 2-AG in blood compared to the basal levels [10]: about 70%
